Patent publication US20100204249A1, “SECRETORY PHOSPHOLIPASE A2 (SPLA2) INHIBITOR AND NIACIN DRUG COMPOSITIONS AND METHODS FOR TREATING CARDIOVASCULAR DISEASE AND DYSLIPIDEMIA” (priority 2009, published 2010)

Key:
[1] = test system: human subjects with stable CAD; assay: Change in TG levels at eight weeks, A-002 and/or niacin drugs, subjects with stable CAD; conditions: for Baseline Mean TG: before trial period; for Baseline Mean TG / Week 8 Mean TG: stable CAD; for Difference versus placebo (TG % change) / % change versus baseline (TG) / Week 8 Mean TG: week 8; for % change versus baseline (TG): ANCOVA subject-specific percent change from baseline; for Change from baseline (mean TG): week 8 versus baseline
Description: (§1) 46 subjects from the above once-a-day and twice-a-day A-002 studies were identified as receiving niacin drugs before and during the trial period. 45 of these 46 subjects were also receiving one or more statins before and during the trial period. The niacin drugs included niacin, nicotinic acid, acipimox, ERN (Niaspan®), Niaspan® in combination with lovastatin (Advicor®), and/or Niaspan® in combination with simvastatin (Simcor®). Of the 46 niacin subjects, twelve were concomitantly administered placebo rather than A-002 (i.e., niacin drug only), four were administered 100 mg of A-002 daily, five were administered 200 mg of A-002 daily, five were administered 250 mg of A-002 daily, thirteen were administered 500 mg of A-002 daily, and seven were administered 1000 mg of A-002 daily.
(§2) The change from baseline HDL and TG levels at eight weeks was determined for each of the subjects receiving niacin drugs, and the percentage increase or decrease in these levels was determined using an analysis of covariance (ANCOVA) model that calculated subject-specific percent change from baseline.

[2] = cited from earlier work
[3] = test system: human subjects with stable CAD; assay: Change in HDL levels at eight weeks, A-002 and/or niacin drugs, subjects with stable CAD; conditions: for Baseline Mean HDL: before trial period; for Baseline Mean HDL / Week 8 Mean HDL: stable CAD; for Difference versus placebo (HDL % change) / % change versus baseline (HDL) / Week 8 Mean HDL: week 8; for % change versus baseline (HDL): ANCOVA subject-specific percent change from baseline; for Change from baseline (mean HDL): week 8 versus baseline
Description: as §1, §2

[4] = test system: human subjects with stable CAD; conditions: oral, once or twice a day, total daily 100-1000 mg, all dosages tested; 361 subjects; cited from earlier work
sPLA2 = conditions: cited from earlier work
[5] = eight weeks, magnitude of decrease

| SMILES | Baseline Mean TG [1] [mg/dL] | Difference versus placebo (TG % change) [1] | % change versus baseline (TG) [1] | Week 8 Mean TG [1] [mg/dL] | Change from baseline (mean TG) [1] | terminal half-life (t1/2) ([2]; in vivo) | absorption and hydrolysis to the active A-001 molecule ([2]; prodrug) | Baseline Mean HDL [3] [mg/dL] | decrease in HDL versus baseline [3, 5] [%] | Difference versus placebo (HDL % change) [3] | % change versus baseline (HDL) [3] [%] | Week 8 Mean HDL [3] [mg/dL] | Change from baseline (mean HDL) [3] [mg/dL] | serum LDL, LDL particle, small LDL particle, oxidized LDL, total cholesterol, ApoB, TG, sPLA2, CRP, and IL-6 levels [4] | increase in TG versus placebo ([1]; eight weeks, magnitude of increase) [%] | decrease in HDL versus placebo [3, 5] [%] | type of sPLA2 inhibition (sPLA2) |
| --- | --- | --- | --- | --- | --- | --- | --- | --- | --- | --- | --- | --- | --- | --- | --- | --- | --- |
| CCc1c(C(=O)C(N)=O)c2c(OCC(=O)OC)cccc2n1Cc1ccccc1 [A-002, [[3-(2-Amino-1,2-dioxoethyl)-2-ethyl-1-(phenylmethyl)-1H-indol-4-yl]oxy]acetic acid methyl ester] | 165.83 | −2.6% | −3.7% | 159.04 | -6.79 mg/dL | approximately ten | rapidly absorbed and hydrolyzed | 47.80 | 2.0 | +0.3% | −2.0 | 46.28 | -1.52 | decrease |  |  |  |
| O=C(O)c1cccnc1 [Niacin, pyridine-3-carboxylic acid] | 129.25 | +3.4% | +9.7% | 133.42 | +4.17 mg/dl |  |  | 50.67 | 6.2 | −3.9% | −6.2 | 46.75 | -3.92 |  | 3.4 | 3.9 |  |
| CCc1c(C(=O)C(N)=O)c2c(OCC(=O)O)cccc2n1Cc1ccccc1 [A-001] |  |  |  |  |  |  |  |  |  |  |  |  |  |  |  |  | competitive inhibitor |
